According to EP2085394B1, “Metronidazole derivatives as antiparasitic agents” (University of Jordan, priority 2008, dated 2009):
Values after ≈ are worked out from the molar mass of the structure shown.

How the values were obtained:
Format in all cases: cell-based
[1] = tested on: Leishmania donovani promastigotes; assay: Antileishmanial activity, 96-well plates; conditions: for IC50: Leishmania donovani; for IC50 / IC100 Leishmania donovani: promastigotes, 72 h, 24°C; for lethal activity: Leishmania donovani promastigotes, result in words
Description: (§1) Entamoeba histolytica HK-9 strain (ATCC number 30015) was cultured in LYI-S-2 medium supplemented with antibiotics. Giardia intestinalis WB strain (ATCC number 30957) was grown in a modified YI-S medium with antibiotics. Both parasites were cultivated in 15-mL screw-capped borosilicate glass tubes containing 13 mL medium. The tubes were incubated on a 15° horizontal slant at (36-37) °C. Culture maintenance and subculturing was performed as described by Clark and Diamond. Entamoeba and Giardia were harvested from confluent cultures by chilling of the tubes on ice for 5-10 min to detach cells, followed by centrifugation at 800 x g for 5 min. Leishmania donovani and L. tropica promastigotes were cultured in Schneider's medium containing 20 % foetal calf serum and antibiotics at 24°C. Stationary phase promastigotes were harvested by centrifugation at 1000 x g for 10 min.
(§2) The antileishmanial activity of metronidazole-derivatives was tested in 96-well plates. Each of the meronidazole-derivatives and the reference drugs were dissolved in 10 µL of dimethyl sulfoxide (DMSO) and were completed with […] growth medium. The solutions were filter sterilized using 0.22 µm syringe filters. Then, 170 µL-two fold serial dilutions of each of the compounds and metronidazole starting at a concentration of 2000 µg/mL in culture medium were prepared in flat bottomed 96-well microtiter plates of 400-µL-well-capacity. A suspension containing 10^5 of Leishmania promastigotes per milliliter culture medium was prepared and 170-µL portions of the suspension were added to the appropriate wells. Plates were covered with the microtiter plate lids and incubated at 24°C. The number of parasites in each well was determined after 72 h by counting in a hemacytometer at the 10X objective lens. Leishmania viability was determined by observing promastigote motility. Each compound was assayed in duplicate in each of three independent experiments. In each assay two sets of controls were performed, one without any test compound and another with amphotericin B as a standard antileishmanial drug.
(§3) The minimal inhibitory concentration (MIC) defined as the minimum concentration of a compound at which no parasitic growth was observed. The 50% inhibitory concentration (IC50) was the concentration of compounds which cut the number of parasites to half that in the negative control (growth medium + DMSO + parasites).

[2] = tested on: Leishmania tropica promastigotes; assay: Antileishmanial activity, 96-well plates; conditions: for IC50: Leishmania tropica; for IC50 / IC100 Leishmania tropica: promastigotes, 72 h, 24°C; for lethal activity: Leishmania tropica promastigotes, result in words
Description: as §1, §2, §3

[3] = tested on: Giardia intestinalis WB strain; assay: Antigiardial activity, tube method; conditions: for IC100 Giardia intestinalis / IC50: 72 hours, (36-37) °C, parasite count; for IC50: Giardia duodenalis; for lethal activity / IC50 times less than that of metronidazole: Giardia intestinalis; for lethal activity: result in words; for IC50 times less than that of metronidazole: relative to the standard drug metronidazole
Description: as §1
(§4) The antiamoebic and antigiardial activities of metronidazole-derivatives were tested using the tube method according to published procedures with some modifications. Eight milligrams of a test compound or metronidazole were dissolved in 10 µL of dimethyl sulfoxide (DMSO) and completed with 10 mL growth medium. The solutions were filter sterilized using 0.22 µm syringe filters and the appropriate volumes of the solutions were taken to prepare the concentrations of each compound in 15-mL screw-capped borosilicate glass tubes. For each compound, concentrations of 60, 30, 15, 7.5, 3.5, 1.7, 0.8, 0.4, 0.2, 0.1, 0.05, 0.02, 0.01, 0.005 µg/mL medium were prepared in a final volume of 15 mL to exclude air from the tube. For more accurate determination of the biologically active concentration of the compound, other concentrations around the above mentioned ones were also tested. Each tube was inoculated with 20,000 cells of the parasite under testing (Entamoeba or Giardia). Each compound was assayed in duplicate in each of three independent experiments. In each assay, two sets of controls were performed, one without any test compound and another with metronidazole. The caps of Entamoeba and Giardia tubes were tightly screwed and wrapped with parafilm. The tubes were incubated on a 15° horizontal slant at (36-37) °C for 72 hours.
(§5) The number of parasites in the tubes was determined as described in the literature by counting in a hemacytometer at the 10X objective. For counting of Entamoeba and Giradia, the tubes were placed on ice to permit detachment of the parasite and centrifuged at 1000 x g for 10 min. The supernatant was discarded and 1 mL fresh medium was added to each tube. Then, 25 µL of the parasite suspension in each tube was mixed with 100 µL of 0.4 % trypan blue in phosphate buffered saline (PBS) to distinguish viable from dead parasites.
as §3

[4] = tested on: Entamoeba histolytica HK-9 strain; assay: Antiamoebic activity, tube method; conditions: for IC100 Entamoeba histolytica / IC50: 72 hours, (36-37) °C, parasite count; for lethal activity / IC50 / IC50 times less than that of metronidazole: Entamoeba histolytica; for lethal activity: result in words; for IC50 times less than that of metronidazole: relative to the standard drug metronidazole
Description: as §1, §4, §5, §3

Hep-2 cells = assay: Cytotoxicity assay, trypan blue exclusion; conditions: compared with the standard drug
Description: (§6) The cytotoxicity of the metronidazole-derivatives and the reference drugs was investigated on Hep-2 and Vero cells using the standard cytotoxicity assay and the trypan blue exclusion method, as described in the literature, with modifications. A cell suspension (10^5 cells/mL RPMI medium containing 10% inactivated foetal calf serum) was prepared from confluent cultures and 100 µL portions of the suspension were added to the wells of 96-well plates. The cells were incubated for 24 h at 37 °C and 5 % CO2 and the medium in each well was then replaced with fresh 150 µL medium. Solutions of the test compounds or reference drugs were prepared and sterilized as described above (Antiprotozolal activity). Then, 150 µL-two fold serial dilutions of each of the compounds and the reference drugs starting at a concentration of 2000 µg/mL in culture medium were prepared in the plates. After 48 hour incubation at 37 °C and 5 % CO2, the number of cells in each well was determined as follows: The medium in each well was gently replaced with 100 µL of 0.25% (w/v) trypsin-0.53 mM EDTA solution and the plates were incubated for 5 minute at 37 °C to detach the cells followed by the addition of 200 µL of trypan blue solution were added to each well and the plates were, then, placed on ice. The cells were counted in a hemacytometer at the 10X objective. Each compound or reference drug was assayed in duplicate in each of three independent experiments. In each assay the negative controls (without any test compound or reference drug) were included in duplicates. IC0 was the concentration of compound at which the number of cells in the well was more than or equal to that of the negative control (IC0 = no inhibition of cell growth). Table 1. Antiamoebic and antigiardial activities of compounds IA, IIA, and IIIA

Vero cells = assay: Cytotoxicity assay, trypan blue exclusion; conditions: compared with the standard drug
Description: as §6

C[C@@H]1[C@H](O)[C@@H](C)/C=C/C=C/C=C/C=C/C=C/C=C/C=C/[C@H](O[C@@H]2O[C@H](C)[C@@H](O)[C@H](N)[C@@H]2O)C[C@@H]2O[C@](O)(C[C@@H](O)C[C@@H](O)[C@H](O)CC[C@@H](O)C[C@@H](O)CC(=O)O[C@H]1C)C[C@H](O)[C@H]2C(=O)O [Amphotericin B, reference compound] was tested, and the IC50 [1] was 0.08 µg/mL (≈ 0.0866 µM), the “IC100 Leishmania donovani” value [1] was 2.5 µg/mL and the IC50 [2] was 0.08 µg/mL (≈ 0.0866 µM). The “IC100 Leishmania tropica” value [2] was 2.5 µg/mL.

With Cc1ncc([N+](=O)[O-])n1CCOc1ccc(C=O)cc1 [Compound IA, 4-[2-(2-methyl-5-nitro-1H-imidazol-1-yl)ethoxy]benzaldehyde] the “IC100 Giardia intestinalis” value [3] was 0.14 µg/mL, the IC50 [3] was 0.01 µg/mL (≈ 0.0363 µM) and the lethal activity [3] was “potent lethal activity”. The “IC50 times less than that of metronidazole” value (shortened to “IC50 times less than that”) [3] was 80 times, the “IC100 Entamoeba histolytica” value [4] was 0.14 µg/mL and the lethal activity [4] was “potent lethal activity”. For the same molecule, the IC50 [4] was 0.01 µg/mL (≈ 0.0363 µM), the “IC50 times less than that” value [4] was 80 times and the lethal activity [1] was “lethal activity”. For the same molecule, the IC50 [1] was 300 µg/mL (≈ 1090 µM), the “IC100 Leishmania donovani” value [1] was 2000 µg/mL and the lethal activity [2] was “lethal activity”. For the same molecule, the IC50 [2] was 150 µg/mL (≈ 545 µM), the “IC100 Leishmania tropica” value [2] was 2000 µg/mL and the cytotoxicity (Hep-2 cells) was “equivalent in cytotoxicity to the standard drug”. For the same molecule, the cytotoxicity (Vero cells) was “equivalent in cytotoxicity to the standard drug”.

For Cc1ncc([N+](=O)[O-])n1CCNS(=O)(=O)c1sc(Cl)cc1Br [IIA], the “IC100 Giardia intestinalis” value [3] was 0.3 µg/mL, the IC50 [3] was 0.04 µg/mL (≈ 0.0931 µM) and the lethal activity [3] was “potent lethal activity”. For the same molecule, the “IC50 times less than that” value [3] was 20 times, the “IC100 Entamoeba histolytica” value [4] was 0.3 µg/mL and the lethal activity [4] was “potent lethal activity”. The IC50 [4] was 0.04 µg/mL (≈ 0.0931 µM), the “IC50 times less than that” value [4] was 20 times and the lethal activity [1] was “lethal activity”. The IC50 [1] was 300 µg/mL (≈ 698 µM), the “IC100 Leishmania donovani” value [1] was 2000 µg/mL and the lethal activity [2] was “lethal activity”. The IC50 [2] was 150 µg/mL (≈ 349 µM), the “IC100 Leishmania tropica” value [2] was 2000 µg/mL and the cytotoxicity (Hep-2 cells) was “equivalent in cytotoxicity to the standard drug”. For the same molecule, the cytotoxicity (Vero cells) was “equivalent in cytotoxicity to the standard drug”.

Cc1ncc([N+](=O)[O-])n1CCN1CCN(CCO)CC1 [IIIA] was tested, and the “IC100 Giardia intestinalis” value [3] was 0.8 µg/mL, the IC50 [3] was 0.04 µg/mL (≈ 0.141 µM) and the lethal activity [3] was “potent lethal activity”. For the same molecule, the “IC50 times less than that” value [3] was 20 times, the “IC100 Entamoeba histolytica” value [4] was 0.8 µg/mL and the lethal activity [4] was “potent lethal activity”. For the same molecule, the IC50 [4] was 0.04 µg/mL (≈ 0.141 µM), the “IC50 times less than that” value [4] was 20 times and the lethal activity [1] was “lethal activity”. The IC50 [1] was 62.5 µg/mL (≈ 221 µM), the “IC100 Leishmania donovani” value [1] was 250 µg/mL and the lethal activity [2] was “lethal activity”. The IC50 [2] was 62.5 µg/mL (≈ 221 µM), the “IC100 Leishmania tropica” value [2] was 250 µg/mL and the cytotoxicity (Hep-2 cells) was “equivalent in cytotoxicity to the standard drug”. The cytotoxicity (Vero cells) was “equivalent in cytotoxicity to the standard drug”.

Cc1ncc([N+](=O)[O-])n1CCO [Metronidazole, 2-(2-methyl-5-nitro-1H-imidazol-1-yl) ethanol] was tested, and the “IC100 Giardia intestinalis” value [3] was 3.2 µg/mL, the IC50 [3] was 0.8 µg/mL (≈ 4.67 µM) and the “IC100 Entamoeba histolytica” value [4] was 3.2 µg/mL. The IC50 [4] was 0.8 µg/mL (≈ 4.67 µM), the IC50 [1] was 2000 µg/mL (≈ 11700 µM) and the IC50 [2] was 2000 µg/mL (≈ 11700 µM).
